The data set in a line: Apparent permeability across apical to basolateral side in human Caco-2 cells monolayer. Type of data set: ADME, cell-based. (In general: Passage across Caco-2 layers is used to estimate intestinal permeability.)

In the case of `CSc1nc(-c2cccc(NC(=O)c3c(F)ccc(O)c3CN3C(=O)c4ccccc4C3=O)c2)c(-c2ccnc(NC(C)=O)c2)[nH]1`, the Papp entry is “Impermeable”. For `C=CC(=O)Nc1ccc(OC)c(Nc2cc(-c3[nH]c(SC)nc3-c3cccc(NC(=O)c4c(F)ccc(O)c4CN4C(=O)c5ccccc5C4=O)c3)ccn2)c1`, the Papp entry is given as “Impermeable”.
